Experimental data reported in the NIST ThermoML archive (doi:10.1021/je060271a).
± gives the expanded uncertainty stated by the source.

Conditions: 303.15 K, Liquid, Vibrating tube method

CCCCC(=O)OCC(COC(=O)CCCC)(COC(=O)CCCC)COC(=O)CCCC [pentaerythritol tetrapentanoate]
Conditions	mass density [kg/m3]
24416 kPa	1025.8 ± 1.2
24455 kPa	1025.9 ± 1.2
24486 kPa	1025.8 ± 1.2
24518 kPa	1026 ± 1.2
24556 kPa	1025.8 ± 1.2
24588 kPa	1025.8 ± 1.2
24618 kPa	1026.1 ± 1.2
24648 kPa	1025.9 ± 1.2
24685 kPa	1026.1 ± 1.2
24717 kPa	1026 ± 1.2
24757 kPa	1026 ± 1.2
24790 kPa	1025.9 ± 1.2
24823 kPa	1026.1 ± 1.2
24863 kPa	1026.1 ± 1.2
24893 kPa	1026.2 ± 1.2
24922 kPa	1026 ± 1.2
24956 kPa	1026.1 ± 1.2
24986 kPa	1026.1 ± 1.2
25015 kPa	1026.2 ± 1.2
25045 kPa	1026.1 ± 1.2
25080 kPa	1026.2 ± 1.2
25109 kPa	1026.2 ± 1.2
25144 kPa	1026.2 ± 1.2
25174 kPa	1026.2 ± 1.2
25203 kPa	1026.3 ± 1.2
25233 kPa	1026.4 ± 1.2
25269 kPa	1026.3 ± 1.2
25298 kPa	1026.2 ± 1.2
25328 kPa	1026.3 ± 1.2
25364 kPa	1026.3 ± 1.2
25394 kPa	1026.4 ± 1.2
25430 kPa	1026.2 ± 1.2
25460 kPa	1026.4 ± 1.2
25490 kPa	1026.3 ± 1.2
25527 kPa	1026.3 ± 1.2
25558 kPa	1026.5 ± 1.2
25588 kPa	1026.4 ± 1.2
25624 kPa	1026.5 ± 1.2
25654 kPa	1026.6 ± 1.2
25686 kPa	1026.6 ± 1.2
25753 kPa	1026.5 ± 1.2
25785 kPa	1026.6 ± 1.2
25816 kPa	1026.6 ± 1.2
25854 kPa	1026.6 ± 1.2
25885 kPa	1026.7 ± 1.2
25916 kPa	1026.7 ± 1.2
25954 kPa	1026.8 ± 1.2
25985 kPa	1026.7 ± 1.2
26023 kPa	1026.6 ± 1.2
26054 kPa	1026.7 ± 1.2
26086 kPa	1026.8 ± 1.2
26119 kPa	1026.7 ± 1.2
26157 kPa	1026.8 ± 1.2
26190 kPa	1026.8 ± 1.2
26222 kPa	1027 ± 1.2
26261 kPa	1026.9 ± 1.2
26294 kPa	1026.9 ± 1.2
26326 kPa	1027 ± 1.2
26365 kPa	1027 ± 1.2
26398 kPa	1026.9 ± 1.2
26431 kPa	1027 ± 1.2
26469 kPa	1027 ± 1.2
26503 kPa	1027 ± 1.2
26536 kPa	1027 ± 1.2
26575 kPa	1027.2 ± 1.2
26609 kPa	1027 ± 1.2
26642 kPa	1027 ± 1.2
26686 kPa	1027.2 ± 1.2
26712 kPa	1027.1 ± 1.2
26753 kPa	1027.2 ± 1.2
26787 kPa	1027.1 ± 1.2
26822 kPa	1027.2 ± 1.2
26863 kPa	1027.3 ± 1.2
26897 kPa	1027.2 ± 1.2
26931 kPa	1027.2 ± 1.2
26966 kPa	1027.3 ± 1.2
27007 kPa	1027.3 ± 1.2
27042 kPa	1027.2 ± 1.2
27077 kPa	1027.3 ± 1.2
27119 kPa	1027.3 ± 1.2
